Assay results as given in patent US20180161400A1 (Emisphere Technologies, Inc., priority 2004, published 2018).
Several values for one entry are separate records, joined by “and”; a condition that tells them apart may be missing. Identical values can stand only once. Counter-ions that a name gives are not always drawn.

Legend:
[1] = cited from earlier work
[2] = cited from earlier work; remark: listed apart in the source
[3] = test system: people with Type 2 diabetes; details: cited from earlier work
[4] = test system: patients with impaired glucose tolerance; details: compared with placebo, over 2.8 years; cited from earlier work
[5] = test system: Type 2 diabetics; details: cited from earlier work
[6] = cited from earlier work; remark: listed apart in the source
[7] = test system: Sprague Dawley rats; assay: Single oral gavage of insulin/4-CNAB/metformin solutions to fasted rats, blood glucose by hand-held glucometer; format: in vivo; details: for Percent Change in Glucose (from baseline), Mean / Blood Glucose, Mean: group mean n=5; for Percent Change in Glucose Compared to Carrier Alone, Mean: group mean; for Percent Change in Glucose Compared to Carrier Alone: individual rat vs vehicle group mean; for Percent Change in Glucose (from baseline) / Blood Glucose: individual rat
Method: These solutions were sonicated at 35° C. and the pH adjusted to 6.5-8.5 with sodium hydroxide.
Sprague Dawley rats were fasted overnight (16-24 h) and were divided into five groups for oral dosing (n=5 per group). Each rat received a single oral dose (by gavage) of dosing solution at a final dose volume of 1 mL/kg. […] The study also included a control group that received an oral dose of vehicle (water) alone. Blood samples were collected by the tail clip method at 0, 15, 30, 45, 60, 120, 180, 240 and 300 minutes and blood glucose was measured immediately using a hand-held glucometer.

[8] = in vivo; cited from earlier work
[9] = 15 min, listed as Metformin (450)
[10] = 30 min, listed as Metformin (450)
[11] = 45 min, listed as Metformin (450)
[12] = 60 min, listed as Metformin (450)
[13] = 120 min, listed as Metformin (450)
[14] = 180 min, listed as Metformin (450)
[15] = 240 min, listed as Metformin (450)
[16] = 300 min, listed as Metformin (450)

Q: For `CN(C)C(=N)N=C(N)N` [Metformin hydrochloride], which “pH of a 1% aqueous solution” value [1] is on record?
A: 6.68

Q: Which “times less likely to cause lactic acidosis” value ([2]; compared with phenformin) does the source give for `CN(C)C(=N)N=C(N)N` [Metformin, 1,1-Dimethylbiguanidine] here?
A: 20 times

Q: What about the “Lactic acidosis occurrence, once in every ... of use” value ([2]; in vivo) of the same molecule?
A: 30,000 person-years

Q: And the “mortality rate of lactic acidosis” value ([2]; in vivo)?
A: about 40%

Q: And the “decrease in heart attacks” value ([3]; 10 year UKPDS, Type 2 diabetes)?
A: 39%

Q: And the “decrease in overall mortality” value ([3]; 10 year UKPDS, Type 2 diabetes)?
A: 36%

Q: What about the “reduction of the incidence of type 2 diabetes” value [4] of the same molecule?
A: 31%

Q: What about the “reduction of raised plasma insulin levels” value ([5]; cases of metabolic syndrome) of the same molecule?
A: ≤ 30%

Q: What about the “lowering of A1c, average” value ([5]; human, in vivo) of the same molecule?
A: 1.5%

Q: And the “lowering of fasting blood glucose levels, average” value ([5]; human, in vivo)?
A: 25%

Q: And the “lowering of postprandial blood glucose” value ([5]; human, in vivo)?
A: up to 44.5%

Q: What about the “non-absorbed fraction recovered in feces” value ([6]; after an oral dose) of the same molecule?
A: 20-30%

Q: And the “maximum metformin plasma levels (Cmax)” value ([6]; controlled clinical trials, even at maximum doses)?
A: ≤ 4 µg/mL

Q: What about the “steady state plasma concentrations” value ([6]; usual doses and dosing schedules) of the same molecule?
A: less than 1 μg/mL

Q: And the “time of maximum decline in blood glucose” value ([7]; after oral administration)?
A: about 45 minutes

Q: And the “Percent Change in Glucose (from baseline), Mean” value ([7]; 0 min)?
A: 0.000%

Q: And the “Blood Glucose, Mean” value ([7]; 0 min (pre-dose baseline), label doses mg/kg oral)?
A: 99.000 mg/dL

Q: And the “Percent Change in Glucose (from baseline), Mean” value ([7]; 15 min)?
A: 2.053%

Q: What about the “Blood Glucose, Mean” value ([7]; 15 min after single oral dose) of the same molecule?
A: 101.200 mg/dL

Q: And the “Percent Change in Glucose (from baseline), Mean” value ([7]; 30 min)?
A: −3.264%

Q: And the “Blood Glucose, Mean” value ([7]; 30 min after single oral dose)?
A: 95.600 mg/dL

Q: And the “Percent Change in Glucose (from baseline), Mean” value ([7]; 45 min)?
A: −13.716%

Q: What about the “Blood Glucose, Mean” value ([7]; 45 min after single oral dose) of the same molecule?
A: 85.200 mg/dL

Q: And the “Percent Change in Glucose (from baseline), Mean” value ([7]; 60 min)?
A: −17.653%

Q: What about the “Blood Glucose, Mean” value ([7]; 60 min after single oral dose) of the same molecule?
A: 81.200 mg/dL

Q: What about the “Percent Change in Glucose (from baseline), Mean” value ([7]; 120 min) of the same molecule?
A: −35.050%

Q: And the “Blood Glucose, Mean” value ([7]; 120 min after single oral dose)?
A: 63.800 mg/dL

Q: And the “Percent Change in Glucose (from baseline), Mean” value ([7]; 180 min)?
A: −38.670%

Q: What about the “Blood Glucose, Mean” value ([7]; 180 min after single oral dose) of the same molecule?
A: 60.400 mg/dL

Q: And the “Percent Change in Glucose (from baseline), Mean” value ([7]; 240 min)?
A: −40.832%

Q: What about the “Blood Glucose, Mean” value ([7]; 240 min after single oral dose) of the same molecule?
A: 58.200 mg/dL

Q: And the “Percent Change in Glucose (from baseline), Mean” value ([7]; 300 min)?
A: −37.001%

Q: What about the “Blood Glucose, Mean” value ([7]; 300 min after single oral dose) of the same molecule?
A: 62.400 mg/dL

Q: And the “maximum decline in blood glucose from baseline” value ([7]; group mean percent change at the peak time stated in the text)?
A: −40.832%

Q: And the “Percent Change in Glucose Compared to Carrier Alone, Mean” value (“Percent Change … to Carrier Alone, Mean” below) ([7]; 0 min)?
A: 18.990%

Q: What about the “Percent Change … to Carrier Alone, Mean” value ([7]; 15 min) of the same molecule?
A: 4.521%

Q: What about the “Percent Change … to Carrier Alone, Mean” value ([7]; 30 min) of the same molecule?
A: 7.223%

Q: And the “Percent Change … to Carrier Alone, Mean” value ([7]; 45 min)?
A: −0.770%

Q: And the “Percent Change … to Carrier Alone, Mean” value ([7]; 60 min)?
A: 1.563%

Q: And the “Percent Change … to Carrier Alone, Mean” value ([7]; 120 min)?
A: −4.797%

Q: What about the “Percent Change … to Carrier Alone, Mean” value ([7]; 180 min) of the same molecule?
A: −9.824%

Q: What about the “Percent Change … to Carrier Alone, Mean” value ([7]; 240 min) of the same molecule?
A: −12.757%

Q: And the “Percent Change … to Carrier Alone, Mean” value ([7]; 300 min)?
A: −2.733%

Q: And the “Percent Change in Glucose Compared to Carrier Alone” value ([7]; 0 min, listed as Metformin (450))?
A: 29.808% and 5.769% and 12.981% and 17.788% and 28.606%

Q: And the “Percent Change in Glucose Compared to Carrier Alone” value [7, 9]?
A: −8.511% and 2.128% and 6.383% and 16.085%

Q: And the “Percent Change in Glucose Compared to Carrier Alone” value [7, 10]?
A: −4.063% and 8.352% (2×) and 16.253%

Q: What about the “Percent Change in Glucose Compared to Carrier Alone” value [7, 11] of the same molecule?
A: −8.768% and 5.450% and −2.844% and 3.081%

Q: What about the “Percent Change in Glucose Compared to Carrier Alone” value [7, 12] of the same molecule?
A: −7.500% and 5.000% (2×) and 3.750%

Q: And the “Percent Change in Glucose Compared to Carrier Alone” value [7, 13]?
A: −6.977% and 4.651% and −17.151% and 0.291%

Q: What about the “Percent Change in Glucose Compared to Carrier Alone” value [7, 14] of the same molecule?
A: −22.287% and −0.293% and −7.625% and −9.091%

Q: And the “Percent Change in Glucose Compared to Carrier Alone” value [7, 15]?
A: −17.889% and −4.692% and −20.821% and −7.625%

Q: And the “Percent Change in Glucose Compared to Carrier Alone” value [7, 16]?
A: −6.752% and 9.325% and −34.084% and 20.579%

Q: And the “Percent Change in Glucose (from baseline)” value ([7]; 0 min)?
A: 0.000%

Q: And the “Blood Glucose” value ([7]; 0 min (pre-dose baseline), label doses mg/kg oral, listed as Metformin (450))?
A: 108 mg/dL and 88 mg/dL and 94 mg/dL and 98 mg/dL and 107 mg/dL

Q: And the “Percent Change in Glucose (from baseline)” value [7, 9]?
A: 4.630% and −2.273% and 2.128% and 2.041% and 3.738%

Q: What about the “Blood Glucose” value ([7]; 15 min after single oral dose, label doses mg/kg, listed as Metformin (450)) of the same molecule?
A: 113 mg/dL and 86 mg/dL and 96 mg/dL and 100 mg/dL and 111 mg/dL

Q: And the “Percent Change in Glucose (from baseline)” value [7, 10]?
A: −9.259% and −3.409% and 2.128% and −2.041% and −3.738%

Q: And the “Blood Glucose” value ([7]; 30 min after single oral dose, label doses mg/kg, listed as Metformin (450))?
A: 98 mg/dL and 85 mg/dL and 96 mg/dL (2×) and 103 mg/dL

Q: What about the “Percent Change in Glucose (from baseline)” value [7, 11] of the same molecule?
A: −15.741% and −12.500% and −5.319% and −16.327% and −18.692%

Q: What about the “Blood Glucose” value ([7]; 45 min after single oral dose, label doses mg/kg, listed as Metformin (450)) of the same molecule?
A: 91 mg/dL and 77 mg/dL and 89 mg/dL and 82 mg/dL and 87 mg/dL

Q: What about the “Percent Change in Glucose (from baseline)” value [7, 12] of the same molecule?
A: −25.000% and −15.909% and −10.638% and −14.286% and −22.430%

Q: What about the “Blood Glucose” value ([7]; 60 min after single oral dose, label doses mg/kg, listed as Metformin (450)) of the same molecule?
A: 81 mg/dL and 74 mg/dL and 84 mg/dL (2×) and 83 mg/dL

Q: And the “Percent Change in Glucose (from baseline)” value [7, 13]?
A: −47.222% and −27.273% and −23.404% and −41.837% and −35.514%

Q: And the “Blood Glucose” value ([7]; 120 min after single oral dose, label doses mg/kg, listed as Metformin (450))?
A: 57 mg/dL (2×) and 64 mg/dL and 72 mg/dL and 69 mg/dL

Q: What about the “Percent Change in Glucose (from baseline)” value [7, 14] of the same molecule?
A: −48.148% and −39.773% and −27.660% and −35.714% and −42.056%

Q: What about the “Blood Glucose” value ([7]; 180 min after single oral dose, label doses mg/kg, listed as Metformin (450)) of the same molecule?
A: 56 mg/dL and 53 mg/dL and 68 mg/dL and 63 mg/dL and 62 mg/dL

Q: And the “Percent Change in Glucose (from baseline)” value [7, 15]?
A: −50.926% and −36.364% and −30.851% and −44.898% and −41.121%

Q: And the “Blood Glucose” value ([7]; 240 min after single oral dose, label doses mg/kg, listed as Metformin (450))?
A: 56 mg/dL (2×) and 65 mg/dL and 54 mg/dL and 63 mg/dL

Q: And the “Percent Change in Glucose (from baseline)” value [7, 16]?
A: −35.185% and −34.091% and −27.660% and −58.163% and −29.907%

Q: And the “Blood Glucose” value ([7]; 300 min after single oral dose, label doses mg/kg, listed as Metformin (450))?
A: 70 mg/dL and 58 mg/dL and 68 mg/dL and 41 mg/dL and 75 mg/dL

Q: With `CCCNC(=O)NS(=O)(=O)c1ccc(Cl)cc1` [chlorpropamide] as the molecule, how does the average weight gain ([3]; UKPDS intensive therapy) read?
A: 2.6 kg

Q: Which results are given for Glargine insulin: long-acting insulin?
A: duration of activity [8]: 24 h; peak effect [8]: no peak effect
